Measurements published in PMC8616928, “Versatile selective evolutionary pressure using synthetic defect in universal metabolism” (Nature Communications, 2021).

Columns and labels:
TADH = target: T1, TADH (Thermus sp. ATN1, UniProt B2ZRE3); assay: anaerobic growth rescue of E. coli AL and 1H-NMR of broth; format: cell-based; conditions: whole cells, NADH regenerated by glycolysis
T1 construct: full length, untagged, expressed from pUC19 in E. coli strain AL
T1 sequence (B2ZRE3 1-347): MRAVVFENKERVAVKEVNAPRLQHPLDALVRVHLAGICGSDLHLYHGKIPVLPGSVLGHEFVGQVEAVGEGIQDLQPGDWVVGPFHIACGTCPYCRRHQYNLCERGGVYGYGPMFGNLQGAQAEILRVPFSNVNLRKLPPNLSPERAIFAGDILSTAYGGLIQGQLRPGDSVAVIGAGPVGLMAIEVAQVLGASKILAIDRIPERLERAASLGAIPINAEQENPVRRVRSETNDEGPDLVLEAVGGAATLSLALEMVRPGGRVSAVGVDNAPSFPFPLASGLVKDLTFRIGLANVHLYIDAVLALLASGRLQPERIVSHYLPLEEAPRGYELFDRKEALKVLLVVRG

EntNfsB [1] = target: T2, EntNfsB (Enterobacter cloacae, UniProt Q01234); assay: NADH absorbance, initial rates, anaerobic; format: biochemical; conditions: pH 7.4, 37 °C, activity too low for kinetic parameters
T2 construct: gene nfsB; full length, C-terminal His6 (pUC19), E. coli BL21(DE3), FMN holoprotein
T2 sequence (Q01234 1-217): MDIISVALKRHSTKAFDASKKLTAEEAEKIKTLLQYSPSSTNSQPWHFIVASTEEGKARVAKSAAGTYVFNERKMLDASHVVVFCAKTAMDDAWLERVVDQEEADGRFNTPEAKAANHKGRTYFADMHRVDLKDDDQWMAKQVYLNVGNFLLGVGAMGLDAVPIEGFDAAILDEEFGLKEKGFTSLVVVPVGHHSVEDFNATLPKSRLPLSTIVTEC

EntNfsB [2] = target: T3, EntNfsB (Enterobacter cloacae, UniProt Q01234, T41L/Y68L/F124L); conditions: pH 7.4, 37 °C, saturating cofactor, anaerobic
T3 construct: gene nfsB

MsIRED [3] = target: T4, MsIRED (Myxococcus stipitatus, UniProt L7U9F5, N32D/R33V/T34R/K37R); assay: NADH absorbance, initial rates, Michaelis-Menten with substrate inhibition; format: biochemical; conditions: NADH saturating, pH 7.4, 37 °C; substrate inhibition constant
T4 construct: gene MYSTI_01767

MsIRED [4] = target: T5, MsIRED (Myxococcus stipitatus, UniProt L7U9F5, N32E/R33Y/T34E/K37R/L67I/T71V); assay: as above; format: biochemical; conditions: NADH saturating, pH 7.4, 37 °C; substrate inhibition constant
T5 construct: gene MYSTI_01767

BDHA = target: T6, BDHA (Bacillus subtilis, UniProt O34788); assay: anaerobic growth rescue of E. coli AL and 1H-NMR of broth; format: cell-based; conditions: whole cells; endogenous acetoin reductase background
T6 construct: full length, untagged, expressed from pUC19 in E. coli strain AL
T6 sequence (O34788 1-346): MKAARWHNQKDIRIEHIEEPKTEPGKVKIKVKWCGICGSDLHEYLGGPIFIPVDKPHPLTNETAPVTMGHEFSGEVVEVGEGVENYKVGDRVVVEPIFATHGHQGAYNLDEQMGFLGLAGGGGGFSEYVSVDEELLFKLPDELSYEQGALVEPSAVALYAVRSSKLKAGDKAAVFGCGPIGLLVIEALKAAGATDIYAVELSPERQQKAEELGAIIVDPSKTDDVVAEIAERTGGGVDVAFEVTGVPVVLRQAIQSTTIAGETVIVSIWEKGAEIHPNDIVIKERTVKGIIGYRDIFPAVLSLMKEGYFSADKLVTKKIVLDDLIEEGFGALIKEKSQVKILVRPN

BUDC = target: T7, BUDC (Klebsiella pneumoniae, UniProt Q48436); assay: as above; format: cell-based; conditions: whole cells; endogenous acetoin reductase background
T7 construct: full length, untagged, expressed from pUC19 in E. coli strain AL
T7 sequence (Q48436 whole entry): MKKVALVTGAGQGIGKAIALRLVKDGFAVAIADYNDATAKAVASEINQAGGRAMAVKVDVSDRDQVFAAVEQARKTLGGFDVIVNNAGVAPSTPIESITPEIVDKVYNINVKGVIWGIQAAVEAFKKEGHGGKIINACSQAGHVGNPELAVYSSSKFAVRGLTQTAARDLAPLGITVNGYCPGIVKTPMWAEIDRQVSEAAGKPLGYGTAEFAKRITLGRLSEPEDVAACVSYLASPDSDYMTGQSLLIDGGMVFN

CBADH = target: T8, CBADH (Clostridium beijerinckii, UniProt P25984); assay: NAD(P)H absorbance, initial rates; format: biochemical; conditions: NADP+, pH 8.8, 37 °C
T8 construct: gene adh
T8 sequence (P25984 1-351): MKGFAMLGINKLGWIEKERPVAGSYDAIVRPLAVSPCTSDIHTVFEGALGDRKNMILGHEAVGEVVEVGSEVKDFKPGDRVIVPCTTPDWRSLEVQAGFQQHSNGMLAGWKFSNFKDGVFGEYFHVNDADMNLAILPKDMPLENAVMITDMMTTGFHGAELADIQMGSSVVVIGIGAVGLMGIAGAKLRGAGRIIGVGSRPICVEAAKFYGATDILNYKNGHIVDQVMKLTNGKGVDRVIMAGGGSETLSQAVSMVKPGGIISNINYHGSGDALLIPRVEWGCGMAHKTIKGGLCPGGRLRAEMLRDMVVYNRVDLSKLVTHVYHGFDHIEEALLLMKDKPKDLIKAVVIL

[5] = substrate: CC1=NCCC1; assay: NADH absorbance, initial rates, Michaelis-Menten with substrate inhibition; format: biochemical, Myxococcus stipitatus; conditions: NADH saturating, pH 7.4, 37 °C
[6] = substrate: O=C(O)c1ccc([N+](=O)[O-])cc1; assay: NADH absorbance, initial rates, anaerobic, Michaelis-Menten fit; format: biochemical, Enterobacter cloacae; conditions: pH 7.4, 37 °C, saturating cofactor

With `CC1CCCC(=O)C1` (stereo not drawn) [3-methylcyclohexanone] the “anaerobic growth rescue of E. coli AL and 1H-NMR of broth” value (“anaerobic growth rescue” below) (TADH) was “acetoin for BDHA and BUDC, and cyclohexanone or 3-methylcyclohexanone for TADH”.

With `O=[N+]([O-])c1ccc(CO)cc1` [4-nitrobenzyl alcohol] the “NADH absorbance, initial rates, anaerobic” value (EntNfsB [1]) was “it was able to reduce 4-NBA and 4-NBALC but not 2-NBA” and the Km (EntNfsB [2]) was 1110 µM.

With `CC1=NCCC1` [2-methyl-1-pyrroline] the Ki (MsIRED [3]) was 11.42 mM and the Ki (MsIRED [4]) was 4.94 mM.

`CC(=O)C(C)O` (stereo not drawn) [acetoin] was tested, and the “anaerobic growth rescue” value (BDHA) was “acetoin for BDHA and BUDC, and cyclohexanone or 3-methylcyclohexanone for TADH” and the “anaerobic growth rescue” value (BUDC) was “acetoin for BDHA and BUDC, and cyclohexanone or 3-methylcyclohexanone for TADH”.

`O=C1CCCCC1` [cyclohexanone] was tested, and the “anaerobic growth rescue” value (TADH) was “acetoin for BDHA and BUDC, and cyclohexanone or 3-methylcyclohexanone for TADH”.

`CC(C)O` [isopropanol] was tested, and the “NAD(P)H absorbance, initial rates” value (CBADH) was “Unlike the parent enzyme CBADHWT, purified CBADHS was unable to oxidize isopropanol using oxidized NADP”.

B1: MsIRED (Myxococcus stipitatus DSM 14675; K37R/N32D/R33V/T34R) (protein)
chain: MKPTLTVIGAGRMGSALIKAFLQSGYTTTVWDVRKARSEPLAKLGAHLADTVRDAVKRSDIIVVNVLDYDTSDQLLRQDEVTRELRGKLLVQLTSGSPALAREQETWARQHGIDYLDGAIMATPDFIGQAECALLYSGSAALFEKHRAVLNVLGGATSHVGEDVGHASALDSALLFQMWGTLFGTLQALAISRAEGIPLEKTTAFIKLTEPVTQGAVADVLTRVQQNRLTADAQTLASLEAHNVAFQHLLALCEERNIHRGVADAMYSVIREAVKAGHGKDDFAILTRFLK
B1 gave a Km [5] of 19570 µM and a kcat [5] of 1.3 s⁻¹.

B2: MsIRED (Myxococcus stipitatus DSM 14675; K37R/L67I/N32E/R33Y/T34E/T71V) (protein)
chain: MKPTLTVIGAGRMGSALIKAFLQSGYTTTVWEYEKARSEPLAKLGAHLADTVRDAVKRSDIIVVNVIDYDVSDQLLRQDEVTRELRGKLLVQLTSGSPALAREQETWARQHGIDYLDGAIMATPDFIGQAECALLYSGSAALFEKHRAVLNVLGGATSHVGEDVGHASALDSALLFQMWGTLFGTLQALAISRAEGIPLEKTTAFIKLTEPVTQGAVADVLTRVQQNRLTADAQTLASLEAHNVAFQHLLALCEERNIHRGVADAMYSVIREAVKAGHGKDDFAILTRFLK
B2 gave a Km [5] of 34060 µM and a kcat [5] of 2.6862 s⁻¹.

B3: EntNfsB (Enterobacter cloacae) (protein)
chain: MDIISVALKRHSTKAFDASKKLTAEEAEKIKTLLQYSPSSTNSQPWHFIVASTEEGKARVAKSAAGTYVFNERKMLDASHVVVFCAKTAMDDAWLERVVDQEEADGRFNTPEAKAANHKGRTYFADMHRVDLKDDDQWMAKQVYLNVGNFLLGVGAMGLDAVPIEGFDAAILDEEFGLKEKGFTSLVVVPVGHHSVEDFNATLPKSRLPLSTIVTEC
notes: full length, C-terminal His6 (pUC19), E. coli BL21(DE3), FMN holoprotein
B3 was tested, and the Km [6] was 141 ± 22 µM and the kcat [6] was 0.762 ± 0.0383 s⁻¹.
